87 compounds from a melting point compilation (Tetko et al.; mined from patent text by program, amines drawn as free bases though some values may be those of a salt) can be followed below.

For the compound `OCC1CC2CCC13CN(CC1CC1)CCC31c3cccc(O)c3OC21` (configuration not stated), the melting point was 187 to 190 °C.

Compound `Cc1noc(NS(=O)(=O)c2c(C)sc3ccccc23)c1Br` came in with a melting point of 131 to 133 °C.

As to `CS(=O)(=O)c1ccc(-c2nn3c(-c4ccccc4)coc3c2-c2ccc(F)cc2)cc1`, the melting point lay within 151 to 154 °C.

`CN(C)C=Nc1c(Cl)cc(N=Cc2ccc(N(C)C)cc2Cl)cc1Cl` yielded a melting point of 139 to 140 °C.

Regarding `O=C(C=Cc1ccc(NC(=O)c2ccccc2)cc1)NO`, the melting point lay within 232 to 234 °C.

For the compound `CCCCCS(=O)(=O)NC(=O)/C=C/c1ccc(OCCOC)cc1OCc1ccc(Cl)cc1Cl`, the melting point worked out at 138 °C.

In turn, `CC1CCC(=NN)c2ncc(C(=O)O)c(=O)n21` (configuration not stated) had a melting point of 202 to 203 °C.

For `COC(=O)C1CCc2cc(C(=O)c3cccs3)c(O)cc21` (configuration not stated), the melting point fell in the range of 183 to 184 °C.

With `CCOCc1cc2cccc(OC)c2o/c1=N\c1ccccc1`, the melting point was 88 to 90 °C.

In turn, `CCCN(CCN1CCN(C(=O)c2ccc3[nH]ccc3c2)CC1)C1CCc2ccc(O)cc2C1` (configuration not stated) had a melting point of 194 to 199 °C.

`COCC(=O)Nc1c(C(=O)CC(=O)Nc2nccs2)cccc1C(F)(F)F` registered a melting point of 152 °C.

As for `CCOC(=O)c1sc(Oc2ccc(NS(=O)(=O)c3ccc(C)cc3)cc2)c2c1CCc1cnn(C)c1-2`, the melting point is 201 to 202 °C.

`CC(C)(C)c1cc(C(C(=O)O)c2cc(C(C)(C)C)c(O)c(C(C)(C)C)c2)cc(C(C)(C)C)c1O` yielded a melting point of 211 °C.

Regarding `Cc1ccccc1CCC(=O)N(C)C(C)C(O)c1ccccc1` (configuration not stated), the melting point was 136 to 137 °C.

`O=C(Nc1cccc2c(N3CCN(Cc4ccccc4)C3=O)ccnc12)c1c(Cl)cccc1Cl` returned a melting point of 178 to 191 °C.

Take `CCCCCCCCSC(CCCCC)CCn1ccnc1` (configuration not stated): the melting point was 105 to 108 °C.

Consider `CC(=O)N1CCc2c(sc(C)c2CCCCN2CCC(c3noc4cc(F)ccc34)CC2)C1`, for which the melting point was 158 to 160 °C.

In turn, `CN(C(=O)OCc1ccccc1)c1ccc(OCC(=O)N[C@@H](CC(N)=O)C(=O)N[C@@H](Cc2ccccc2)[C@H](O)C(=O)N2CCC[C@H]2C(=O)NC(C)(C)C)cc1` had a melting point of 98 to 100 °C.

Turning to `Cc1ccccc1-c1nccc2c(CC#N)cccc12`, the melting point worked out at 120 °C.

`O=C(O)Cc1c(C(=O)O)c2cc(Oc3ccc(Cl)cc3)ccc2n1-c1ccc(OC(F)(F)F)cc1` had a melting point of 198 to 202 °C.

In turn, `CC(C)(C)OC(=O)NCCNC(=O)c1csc(Cl)n1` showed a melting point of 127 to 129 °C.

`COc1c(N2CC3CCC(N)C3C2)c(F)cc2c(=O)n(N)c(=O)n(C3CC3)c12` (configuration not stated) displayed a melting point of 250 to 252 °C.

For `Nc1ccc(CC(=O)N2CCC(c3[nH]nc4c3C(=O)c3c(NC(=O)NN5CCOCC5)cccc3-4)CC2)cc1`, the melting point was 177 to 179 °C.

In the case of `CC(C)N(C(=O)c1ccc(OCCCCCOc2ccc(C(N)=NO)cc2)cc1O)C(C)C`, the melting point lay within 195 to 197 °C.

Turning to `COc1cccc(-c2ccccc2CNC(=O)C(C)C)c1`, the melting point fell in the range of 103 to 105 °C.

On to `Cc1ccccc1Nc1nc(N(C)c2ccccc2)c2cccc(OCCCN(C)C)c2n1`, for which the melting point lay within 77 to 79 °C.

With `CC(C)c1cccc(C(C)C)c1NC(=O)C1c2ccccc2COc2ccc([N+](=O)[O-])cc21` (configuration not stated), the melting point was in the range of 186 to 188 °C.

For the compound `C#CCOCc1c(C)nc2c(OCc3ccccc3C)cccn12`, the melting point lay within 87 to 89 °C.

In turn, `OC(c1ccc(OCc2ccccc2)cc1)C(F)(F)F` (configuration not stated) yielded a melting point of 115 to 117 °C.

Regarding `CCCCc1oc2ccc(C#N)cc2c1C(=O)c1ccc(O)cc1`, the melting point fell in the range of 152 to 153 °C.

`O=c1c(C2=Nc3ccccc3S(=O)(=O)N2)c(O)c2ccccc2n1CC1CCCCC1` gave a melting point of 232 to 235 °C.

The compound `CC1CCN(C(=O)NCCc2ccc(S(=O)(=O)NC(=O)NC3CCCCC3)cc2)C(=O)C1` (configuration not stated) displayed a melting point of 176 to 178 °C.

`COC(=O)c1cc(-c2ccc(OC)c(F)c2)nn(CC(C)C)c1=O` registered a melting point of 119 to 121 °C.

`CCCCCCc1ncc(/C=C(\Cc2cccs2)C(=O)O)n1Cc1ccc(C(=O)O)cc1` displayed a melting point of 210 to 212 °C.

In turn, `O=C(O)C1=c2ccccc2=CC=C2CC=CC=C21` yielded a melting point of 129 °C.

In the case of `COc1ccc2ncccc2c1C1OC(=O)NC1=O` (configuration not stated), the melting point lay in the range of 144 to 146 °C.

Consider `COC(=O)N1CCN(c2ccc(N3CC(CNC(C)=O)OC3=O)cc2F)CC1` (configuration not stated), for which the melting point was in the range of 177 to 179 °C.

`OCc1ccc(-c2cccc(-c3cn([C@H]4CN5CCC4CC5)nn3)c2)cc1` displayed a melting point of 214 °C.

Take `OCCCOc1cccc2cccnc12`: the melting point fell in the range of 126 to 127 °C.

Turning to `CC1(C)CC(C)(C)CC2(CCCC(=O)N2)C1`, the melting point lay within 126 to 128 °C.

Compound `CC1Cc2cc(N)ccc2C1=O` (configuration not stated) showed a melting point of 151 to 152 °C.

`CC(C)C(=O)Nc1ccc(OCc2ccccc2)c(Br)c1N(C)C` showed a melting point of 197 to 198 °C.

The compound `CCCn1c(=O)c(N=O)c(N)n(Cc2ccccc2)c1=O` registered a melting point of 208 to 212 °C.

`N#Cc1cccc(N2CCc3cc(OCc4ccccc4)ccc32)c1` showed a melting point of 102 to 104 °C.

`COc1cccc2c1cc(SCCC(=O)O)n2C` came in with a melting point of 126 to 128 °C.

With `CC1(c2cccc(OCc3ccccc3)c2)C(=O)Nc2cc(Cl)cc(Cl)c2C1=O` (configuration not stated), the melting point is 201 to 203 °C.

`CCn1c2cc(C)ccc2c2ccc3ccccc3c21` came in with a melting point of 104 to 105 °C.

Consider `COC1=C(OC)C(=Nc2ccc(Cl)c(Cl)c2)N(C)C1=O`, for which the melting point was 111 to 113 °C.

As for `CCCCOC1C=CC(=O)N1S(=O)(=O)c1ccccc1` (configuration not stated), the melting point was in the range of 66 to 67 °C.

The compound `CCc1cc2c(Cl)cc(F)c(-n3c(=O)cc(C(F)(F)F)n(C)c3=O)c2o1` showed a melting point of 142 to 143 °C.

Regarding `CCCc1c(CSc2nnc(SCCCCCC(=O)O)s2)ccc(C(C)=O)c1O`, the melting point fell in the range of 67 to 74 °C.

Compound `COc1cc(C(=O)ON=C(C)N)cc([N+](=O)[O-])c1OC` gave a melting point of 165 to 166 °C.

As for `COc1ccc(F)cc1C(C)(C)CC(O)(Cn1ccc(=O)c2ccccc21)C(F)(F)F` (configuration not stated), the melting point is 170 to 172 °C.

The compound `CC1(C)CCC(C)(C)C2=C1CC(C(=O)Oc1ccc(C(=O)O)cc1)C2` returned a melting point of 194 to 195 °C.

Compound `CN(C#N)C1CN(C(=O)Nc2ccc(C(F)(F)F)cc2)N=C1c1ccc(Cl)cc1` (configuration not stated) returned a melting point of 216 to 217 °C.

`CC(C)(C)c1cc(C(=O)c2ccc(C(=O)O)s2)cc(C(C)(C)C)c1O` registered a melting point of 228 to 230 °C.

In turn, `NS(=O)(=O)c1ccc(CCO)s1` came in with a melting point of 70 to 72 °C.

The compound `CC(C)(C)NC(=O)[C@@H]1C[C@H](Cl)CN1C(=O)[C@@H](O)[C@H](Cc1ccccc1)N(Cc1ccccc1)Cc1ccccc1` returned a melting point of 64 to 67 °C.

`Cc1c(C(F)F)cc(-c2ccc(S(C)(=O)=O)cc2)n1-c1ccc(F)cc1` gave a melting point of 136 to 138 °C.

`CC(C)(C)OC(=O)N[C@@H](COC(=O)C(C)(C)C)Cc1ccccc1` displayed a melting point of 59 to 60 °C.

`CCCCCCCCCCCCCCCCCCOc1cc(O)cc(N(CC(=O)O)CC(=O)O)c1` gave a melting point of 143 to 146 °C.

For `CCCC1=C(c2ccc(F)c(F)c2)C(=NO)CC1`, the melting point lay within 136 to 137 °C.

`C=Cc1ccc2nnn(OS(C)(=O)=O)c2c1` gave a melting point of 129 to 130 °C.

For `Cc1ccccc1N1CCN(CCn2c(=O)[nH]c3cscc3c2=O)CC1`, the melting point lay in the range of 214 to 216 °C.

`COc1cnc(N2CCN(c3ccc(-n4c(C)nn(CC(=O)c5ccc(Cl)cc5)c4=O)cc3)CC2)nc1` yielded a melting point of 220 °C.

`CC(C)NC(=O)n1nc(Oc2c(Cl)cc(C(F)(F)F)cc2Cl)cc1C(Cl)(Cl)Cl` gave a melting point of 105 to 106 °C.

`COc1ccc(-c2c[nH]c(-c3nc(-c4ccco4)c(C(=O)C4CCOCC4)s3)n2)cc1` displayed a melting point of 178 to 180 °C.

In turn, `CNS(=O)(=O)c1cccc(-c2ccc3cccc(N4CCN(C)CC4)c3c2)c1` had a melting point of 148 °C.

On to `COC1(c2cc(F)cc(Sc3ccc(/C(C)=N/O)c(O)c3)c2)CCOCC1`, for which the melting point is 140 to 142 °C.

The compound `CC(COc1ccc(N2N=C3c4ccccc4SCC3CC2=O)cc1)N(C)C` (configuration not stated) gave a melting point of 171 to 173 °C.

`CCN(CC)C(=O)c1ccc(OC)cc1` displayed a melting point of 40 to 42 °C.

On to `O=C(O)c1ccc(S(=O)(=O)c2ccccc2)cc1`, for which the melting point was 128 to 132 °C.

Take `CCn1c(=O)c2[nH]c(/C=C/c3cccc(Oc4ccccc4)c3)nc2n(CC)c1=O`: the melting point fell in the range of 241 to 243 °C.

With `O=C(O)Cc1ccc(C2CCCC(=O)C2)cc1` (configuration not stated), the melting point was 96 °C.

`CN(C)C(=O)N1CCN(Cc2ccc3c(c2)-c2[nH]nc(-c4ccsc4)c2C3)CC1` registered a melting point of 214 to 216 °C.

`CCC1NC(C(=O)O)Cc2c1[nH]c1ccccc21` (configuration not stated) registered a melting point of 236 to 237 °C.

On to `Cc1ccc2c(Sc3cc(Cl)cc(Cl)c3)c(CCC(N)=O)[nH]c2c1`, for which the melting point worked out at 152 °C.

The compound `Fc1c(Cl)cc(C(/C=C/c2ccc3[nH]ccc3c2)C(F)(F)F)cc1Cl` (configuration not stated) yielded a melting point of 133 to 139 °C.

In the case of `CCCCCCCCCCCCCCCCCCOc1cc(C(=O)OC)cc(N(CC(=O)OCc2ccccc2)CC(=O)OCc2ccccc2)c1`, the melting point lay in the range of 62 to 63 °C.

The compound `CCCCCOc1ccc(C(=O)c2cccc3ccccc23)c2ccccc12` registered a melting point of 72 to 75 °C.

Compound `CN1Cc2ccc(COc3cccc4c3CN(C3CCC(=O)NC3=O)C4=O)cc2C1` (configuration not stated) had a melting point of 262 to 264 °C.

For the compound `OCCc1ccc2c(c1)sc1ccc(Cl)cc12`, the melting point is 98 to 100 °C.

`Cc1c(C(=O)Nc2ccc(OCC(C)(C)C)c(C#N)c2)cnn1C` came in with a melting point of 187 to 188 °C.

In turn, `Cc1cc2[nH]c(=O)n(S(=O)(=O)c3ccc(Cl)cc3)c(=O)c2cc1C` displayed a melting point of 221 to 222 °C.

For the compound `COC(=O)C=Cc1ccc(C)cc1`, the melting point is 55 to 56 °C.

As for `CC(C)(O)C1CCC(CNC(=O)c2cccnc2Oc2cccc(C#N)c2)CC1` (configuration not stated), the melting point lay in the range of 129 to 130 °C.

Take `Cc1cc(-c2ccc(Cl)c(Cl)c2)nc(-n2cnc(-c3cccc(S(C)(=O)=O)c3)c2)n1`: the melting point worked out at 213 °C.
